Activity calls are given as the source filed them. The calls are words filed in the database; no cut-off is given here.
Assays:
Anastrepha striata [1] = assay: Reduction of fertility in 7 days old adult of Anastrepha striata assessed as reduction of egg hatching at 30 mg/g treated with diet measured after 11 days oviposition; assay type: functional; set-up: scale not given: the % may be the effect or the level left
Anastrepha ludens [2] = assay: Effect on fecundity in 7 days old adult male of Anastrepha ludens at 30 mg/g treated with diet after 24 hr in presence of untreated adult female of Anastrepha ludens; assay type: functional, organism-based
Anastrepha obliqua [3] = assay: Reduction of fertility in 7 days old adult of Anastrepha obliqua assessed as reduction of egg hatching at 0.5 mg/g treated with diet measured after 1 day oviposition; assay type: functional; set-up: scale not given: the % may be the effect or the level left
Anastrepha ludens [4] = assay: Reduction of fertility in 7 days old adult of Anastrepha ludens assessed as reduction of egg hatching at 5 mg/g treated with diet measured after 11 days oviposition; assay type: functional; set-up: scale not given: the % may be the effect or the level left
Anastrepha serpentina [5] = assay: Reduction of fertility in 7 days old adult of Anastrepha serpentina assessed as reduction of egg hatching at 10 mg/g treated with diet measured after 3 days oviposition; assay type: functional; set-up: scale not given: the % may be the effect or the level left
Anastrepha striata [6] = assay: Reduction of fertility in 7 days old adult of Anastrepha striata assessed as reduction of egg hatching at 1 mg/g treated with diet measured after 1 day oviposition; assay type: functional; set-up: scale not given: the % may be the effect or the level left
Anastrepha ludens [7] = assay: Reduction of fertility in 7 days old adult of Anastrepha ludens assessed as reduction of egg hatching at 0.5 mg/g treated with diet measured after 11 days oviposition; assay type: functional; set-up: scale not given: the % may be the effect or the level left
Anastrepha serpentina [8] = assay: Reduction of fertility in 7 days old adult of Anastrepha serpentina assessed as reduction of egg hatching at 5 mg/g treated with diet measured after 7 days oviposition; assay type: functional; set-up: scale not given: the % may be the effect or the level left
Anastrepha serpentina [9] = assay: Reduction of fertility in 7 days old adult of Anastrepha serpentina assessed as reduction of egg hatching at 10 mg/g treated with diet measured after 5 days oviposition; assay type: functional; set-up: scale not given: the % may be the effect or the level left
Anastrepha striata [10] = assay: Effect on fecundity in 7 days old adult female of Anastrepha striata at 30 mg/g treated with diet after 24 hr in presence of untreated adult male of Anastrepha striata; assay type: functional, organism-based
Anastrepha serpentina [11] = assay: Reduction of fertility in 7 days old adult of Anastrepha serpentina assessed as reduction of egg hatching at 0.1 mg/g treated with diet measured after 9 days oviposition; assay type: functional; set-up: scale not given: the % may be the effect or the level left
Anastrepha obliqua [12] = assay: Reduction of fertility in 7 days old adult of Anastrepha obliqua assessed as reduction of egg hatching at 0.1 mg/g treated with diet measured after 5 days oviposition; assay type: functional; set-up: scale not given: the % may be the effect or the level left
Anastrepha serpentina [13] = assay: Effect on fecundity in 7 days old adult male of Anastrepha serpentina at 30 mg/g treated with diet after 24 hr in presence of untreated adult female of Anastrepha serpentina; assay type: functional, organism-based
Anastrepha striata [14] = assay: Reduction of fertility in 7 days old adult of Anastrepha striata assessed as reduction of egg hatching at 0.5 mg/g treated with diet measured after 3 days oviposition; assay type: functional; set-up: scale not given: the % may be the effect or the level left
Anastrepha obliqua [15] = assay: Reduction of fertility in 7 days old adult of Anastrepha obliqua assessed as reduction of egg hatching at 0.1 mg/g treated with diet measured after 7 days oviposition; assay type: functional; set-up: scale not given: the % may be the effect or the level left
Anastrepha serpentina [16] = assay: Reduction of fertility in 7 days old adult of Anastrepha serpentina assessed as reduction of egg hatching at 30 mg/g treated with diet measured after 9 days oviposition; assay type: functional; set-up: scale not given: the % may be the effect or the level left
Anastrepha ludens [17] = assay: Reduction of fertility in 7 days old adult of Anastrepha ludens assessed as reduction of egg hatching at 10 mg/g treated with diet measured after 11 days oviposition; assay type: functional; set-up: scale not given: the % may be the effect or the level left
Anastrepha ludens [18] = assay: Reduction of fertility in 7 days old adult of Anastrepha ludens assessed as reduction of egg hatching at 0.1 mg/g treated with diet measured after 9 days oviposition; assay type: functional; set-up: scale not given: the % may be the effect or the level left
Anastrepha obliqua [19] = assay: Reduction of fertility in 7 days old adult of Anastrepha obliqua assessed as reduction of egg hatching at 0.5 mg/g treated with diet measured after 3 days oviposition; assay type: functional; set-up: scale not given: the % may be the effect or the level left
Anastrepha serpentina [20] = assay: Reduction of fertility in 7 days old adult of Anastrepha serpentina assessed as reduction of egg hatching at 5 mg/g treated with diet measured after 11 days oviposition; assay type: functional; set-up: scale not given: the % may be the effect or the level left
Anastrepha ludens [21] = assay: Reduction of fertility in 7 days old adult of Anastrepha ludens assessed as reduction of egg hatching at 0.5 mg/g treated with diet measured after 9 days oviposition; assay type: functional; set-up: scale not given: the % may be the effect or the level left
Anastrepha serpentina [22] = assay: Reduction of fertility in 7 days old adult of Anastrepha serpentina assessed as reduction of egg hatching at 30 mg/g treated with diet measured after 3 days oviposition; assay type: functional; set-up: scale not given: the % may be the effect or the level left
Anastrepha ludens [23] = assay: Reduction of fertility in 7 days old adult of Anastrepha ludens assessed as reduction of egg hatching at 10 mg/g treated with diet measured after 3 days oviposition; assay type: functional; set-up: scale not given: the % may be the effect or the level left
Anastrepha obliqua [24] = assay: Reduction of fertility in 7 days old adult of Anastrepha obliqua assessed as reduction of egg hatching at 0.5 mg/g treated with diet measured after 11 days oviposition; assay type: functional; set-up: scale not given: the % may be the effect or the level left
Anastrepha obliqua [25] = assay: Reduction of fertility in 7 days old adult of Anastrepha obliqua assessed as reduction of egg hatching at 1 mg/g treated with diet measured after 9 days oviposition; assay type: functional; set-up: scale not given: the % may be the effect or the level left
Anastrepha obliqua [26] = assay: Reduction of fertility in 7 days old adult of Anastrepha obliqua assessed as reduction of egg hatching at 1 mg/g treated with diet measured after 7 days oviposition; assay type: functional; set-up: scale not given: the % may be the effect or the level left
Anastrepha striata [27] = assay: Reduction of fertility in 7 days old adult of Anastrepha striata assessed as reduction of egg hatching at 0.1 mg/g treated with diet measured after 7 days oviposition; assay type: functional; set-up: scale not given: the % may be the effect or the level left
Anastrepha obliqua [28] = assay: Reduction of fertility in 7 days old adult of Anastrepha obliqua assessed as reduction of egg hatching at 0.1 mg/g treated with diet measured after 11 days oviposition; assay type: functional; set-up: scale not given: the % may be the effect or the level left
Anastrepha striata [29] = assay: Reduction of fertility in 7 days old adult of Anastrepha striata assessed as reduction of egg hatching at 30 mg/g treated with diet measured after 5 days oviposition; assay type: functional; set-up: scale not given: the % may be the effect or the level left
Anastrepha obliqua [30] = assay: Reduction of fertility in 7 days old adult of Anastrepha obliqua assessed as reduction of egg hatching at 0.1 mg/g treated with diet measured after 9 days oviposition; assay type: functional; set-up: scale not given: the % may be the effect or the level left
Anastrepha obliqua [31] = assay: Effect on fecundity in 7 days old adult male of Anastrepha obliqua at 30 mg/g treated with diet after 24 hr in presence of untreated adult female of Anastrepha obliqua; assay type: functional, organism-based
Anastrepha obliqua [32] = assay: Reduction of fertility in 7 days old adult of Anastrepha obliqua assessed as reduction of egg hatching at 10 mg/g treated with diet measured after 11 days oviposition; assay type: functional; set-up: scale not given: the % may be the effect or the level left
Anastrepha striata [33] = assay: Reduction of fertility in 7 days old adult of Anastrepha striata assessed as reduction of egg hatching at 0.5 mg/g treated with diet measured after 1 day oviposition; assay type: functional; set-up: scale not given: the % may be the effect or the level left
Anastrepha striata [34] = assay: Reduction of fertility in 7 days old adult of Anastrepha striata assessed as reduction of egg hatching at 0.1 mg/g treated with diet measured after 1 day oviposition; assay type: functional; set-up: scale not given: the % may be the effect or the level left
Anastrepha striata [35] = assay: Reduction of fertility in 7 days old adult of Anastrepha striata assessed as reduction of egg hatching at 0.5 mg/g treated with diet measured after 7 days oviposition; assay type: functional; set-up: scale not given: the % may be the effect or the level left
Anastrepha serpentina [36] = assay: Effect on fertility in 7 days old adult female of Anastrepha serpentina at 30 mg/g treated with diet after 24 hr in presence of untreated adult male of Anastrepha serpentina; assay type: functional, organism-based
Anastrepha striata [37] = assay: Reduction of fertility in 7 days old adult of Anastrepha striata assessed as reduction of egg hatching at 5 mg/g treated with diet measured after 9 days oviposition; assay type: functional; set-up: scale not given: the % may be the effect or the level left
Anastrepha striata [38] = assay: Reduction of fertility in 7 days old adult of Anastrepha striata assessed as reduction of egg hatching at 0.5 mg/g treated with diet measured after 5 days oviposition; assay type: functional; set-up: scale not given: the % may be the effect or the level left
Anastrepha striata [39] = assay: Reduction of fertility in 7 days old adult of Anastrepha striata assessed as reduction of egg hatching at 30 mg/g treated with diet measured after 1 day oviposition; assay type: functional; set-up: scale not given: the % may be the effect or the level left
Anastrepha striata [40] = assay: Reduction of fertility in 7 days old adult of Anastrepha striata assessed as reduction of egg hatching at 10 mg/g treated with diet measured after 7 days oviposition; assay type: functional; set-up: scale not given: the % may be the effect or the level left

## O=C(NC(=O)c1c(F)cccc1F)Nc1cc(Cl)c(OC(F)(F)C(F)C(F)(F)F)cc1Cl (racemic) [LUFENURON]
Anastrepha striata [1]
  Activity: 8%
Anastrepha ludens [2]
  Activity: inactive
Anastrepha obliqua [3]
  Activity: 8.7%
Anastrepha ludens [4]
  Activity: 32.7%
Anastrepha serpentina [5]
  Activity: 34.4%
Anastrepha striata [6]
  Activity: 6.7%
Anastrepha ludens [7]
  Activity: 26.7%
Anastrepha serpentina [8]
  Activity: 96.7%
Anastrepha serpentina [9]
  Activity: 54.7%
Anastrepha striata [10]
  Activity: inactive
Anastrepha serpentina [11]
  Activity: 81.7%
Anastrepha obliqua [12]
  Activity: 8.7%
Anastrepha serpentina [13]
  Activity: inactive
Anastrepha striata [14]
  Activity: 22.7%
Anastrepha obliqua [15]
  Activity: 8%
Anastrepha serpentina [16]
  Activity: 76.7%
Anastrepha ludens [17]
  Activity: 16.7%
Anastrepha ludens [18]
  Activity: 44.7%
Anastrepha obliqua [19]
  Activity: 2.7%
Anastrepha serpentina [20]
  Activity: 86.7%
Anastrepha ludens [21]
  Activity: 16%
Anastrepha serpentina [22]
  Activity: 72.3%
Anastrepha ludens [23]
  Activity: 4.7%
Anastrepha obliqua [24]
  Activity: 4%
Anastrepha obliqua [25]
  Activity: 0%
Anastrepha obliqua [26]
  Activity: 0.7%
Anastrepha striata [27]
  Activity: 72%
Anastrepha obliqua [28]
  Activity: 10.7%
Anastrepha striata [29]
  Activity: 4%
Anastrepha obliqua [30]
  Activity: 6%
Anastrepha obliqua [31]
  Activity: inactive
Anastrepha obliqua [32]
  Activity: 0.7%
Anastrepha striata [33]
  Activity: 13.3%
Anastrepha striata [34]
  Activity: 48.7%
Anastrepha striata [35]
  Activity: 19.3%
Anastrepha serpentina [36]
  Activity: inactive
Anastrepha striata [37]
  Activity: 8.7%
Anastrepha striata [38]
  Activity: 14%
Anastrepha striata [39]
  Activity: 8.7%
Anastrepha striata [40]
  Activity: 0%
